Measurements published in patent US6512000B1, “Aminocarbonyl-substituted benzimidazoles having tryptase-inhibitory activity” (Boehringer Ingelheim Pharma KG, priority 1999, dated 2003).
Counter-ions that a name gives are not always drawn.

Target: T1, rh beta tryptase (Homo sapiens, UniProt P20231)
T1 construct: purchased Promega
Assay: Tryptase inhibition test (cleavage of N-p-tosyl-Gly-Pro-Lys-para-nitroaniline, p-nitroaniline measured at 405 nm)
Type: biochemical
Conditions: pH 7.4, 37° C.; for % Inhibition (10 μM): inhibition of rh beta tryptase at 10 μM test substance, substrate N-p-tosyl-Gly-Pro-Lys-para-nitroaniline 0.6 mM, 5 minutes; for IC50: concentration at which 50% of the tryptase enzyme activity is inhibited, substrate 0.6 mM
Experimental: The compounds according to the invention are characterised by their tryptase-inhibiting activity. This ability to inhibit tryptase was investigated using the test described below.
The measurement is carried out in Tris HCl buffer (100 mM), which additionally contains calcium (5 mM) and heparin ([…]), at pH 7.4. The standard used is rh beta tryptase which may be obtained commercially from Promega, for example. The substrate used is N-p-tosyl-Gly-Pro-Lys-para-nitroaniline in a concentration of 0.6 mM. The substrate is digested with tryptase to form p-nitroaniline which can be measured at 405 nm. Usually, an incubation period of 5 minutes and an incubation temperature of 37° C. are chosen. The enzyme activity used is 0.91 U/ml. The measurements are carried out in an Autoanalyser (Cobas Bio) made by Hofmann LaRoche. The potential inhibitory substances are used in concentrations of 10 μM in the screening, the inhibition of the tryptase being given in percent. The IC50 is determined at over 70% inhibition (concentration at which 50% of the enzyme activity is inhibited). After 5 minutes' pre-incubation of the potential inhibitory substances, the substrate is added to start the reaction, the formation of p-nitroaniline being taken as a measurement of the enzyme activity after 5 minutes, after testing the linearity.
The data obtained after the above test has been carried out (% inhibition) are assembled in Table 25 for the compounds according to the invention. The IC50 values obtained for the compounds according to the invention can be found in Table 26.
Table 26 contains the IC50 binding values obtained for the compounds according to the invention. These were measured as described above.

T1 sequence (P20231 31-275): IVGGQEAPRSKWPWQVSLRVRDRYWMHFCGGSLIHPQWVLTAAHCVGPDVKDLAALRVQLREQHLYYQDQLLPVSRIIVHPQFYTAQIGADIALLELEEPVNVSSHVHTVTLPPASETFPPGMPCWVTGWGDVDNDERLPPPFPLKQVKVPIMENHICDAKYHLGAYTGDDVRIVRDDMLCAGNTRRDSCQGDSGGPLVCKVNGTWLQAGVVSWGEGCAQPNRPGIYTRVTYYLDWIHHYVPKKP

Compound	% Inhibition (10 μM) [%]	IC50 [nM]
2-[2-(4-amidinophenyl)ethyl]-1-(2 thiophenyl-methyl)-benzimidazol-5-yl-carboxylic acid-N-[4-(amino-methyl)-benzyl]-N-(3-pyridyl)-amide [Example 147]	51	–
2-[2-(4-amidinophenyl)ethyl]-1-(2-cyclohexylethyl)-benzimidazol-5-yl-carboxylic acid-N-[4-(amino-methyl)-benzyl]-N-(2-pyridyl)-amide [Example 121]	52	–
2-[2-(4-amidinophenyl)ethyl]-1-(2-cyclohexylethyl)-benzimidazol-5-yl-carboxylic acid-N-[4-(amino-methyl)-benzyl]-N-(3-pyridyl)-amide [Example 137]	52	–
2-[2-(4-amidinophenyl)ethyl]-1-(2-phenylethyl)-benzimidazol-5-yl-carboxylic acid-N-[4-(amino-methyl)-benzyl]-N-(2-pyridyl)-amide [Example 123]	60	–
2-[2-(4-amidinophenyl)ethyl]-1-(2-phenylethyl)-benzimidazol-5-yl-carboxylic acid-N-[4-(amino-methyl)-benzyl]-N-(3-pyridyl)-amide [Example 139]	76	–
2-[2-(4-amidinophenyl)ethyl]-1-(2-thiophenyl-methyl)-benzimidazol-5-yl-carboxylic acid-N-(2-aminoethyl)-N-(2-pyridyl)-amide [Example 323]	59	–
2-[2-(4-amidinophenyl)ethyl]-1-(3-di-n-butylaminopropyl)-benzimidazol-5-yl-carboxylic acid-N-[4-(amino-methyl)-benzyl]-N-(2-pyridyl)-amide [Example 119]	57	–
2-[2-(4-amidinophenyl)ethyl]-1-(3-di-n-butylaminopropyl)-benzimidazol-5-yl-carboxylic acid-N-[4-(amino-methyl)-benzyl]-N-(3-pyridyl)-amide [Example 135]	64	–
2-[2-(4-amidinophenyl)ethyl]-1-(3-ethoxypropyl)-benzimidazol-5-yl-carboxylic acid-N-(2-aminoethyl)-N-(3-pyridyl)-amide [Example 326]	51	288
2-[2-(4-amidinophenyl)ethyl]-1-(3-ethoxypropyl)-benzimidazol-5-yl-carboxylic acid-N-[4-(amino-methyl)-benzyl]-N-(2-pyridyl)-amide [Example 118]	71	304
2-[2-(4-amidinophenyl)ethyl]-1-(3-ethoxypropyl)-benzimidazol-5-yl-carboxylic acid-N-[4-(amino-methyl)-benzyl]-N-(3-pyridyl)-amide [Example 134]	69	231
2-[2-(4-amidinophenyl)ethyl]-1-(4-methylbenzyl)-benzimidazol-5-yl-carboxylic acid-N-[4-(amino-methyl)-benzyl]-N-(2-pyridyl)-amide [Example 125]	63	–
2-[2-(4-amidinophenyl)ethyl]-1-(tetrahydrofuran-2-yl-methyl)-benzimidazol-5-yl-carboxylic acid-N-(2-aminoethyl)-N-(2-pyridyl)-amide [Example 322]	51	–
2-[2-(4-amidinophenyl)ethyl]-1-(tetrahydrofuran-2-yl-methyl)-benzimidazol-5-yl-carboxylic acid-N-[4-(amino-methyl)-benzyl]-N-(2-pyridyl)-amide [Example 130]	77	–
2-[2-(4-amidinophenyl)ethyl]-1-(tetrahydrofuran-2-yl-methyl)-benzimidazol-5-yl-carboxylic acid-N-[4-(amino-methyl)-benzyl]-N-(3-pyridyl)-amide [Example 146]	65	–
2-[2-(4-amidinophenyl)ethyl]-1-[2-(4-chlorophenyl)ethyl]-benzimidazol-5-yl-carboxylic acid-N-[4-(amino-methyl)-benzyl]-N-(2-pyridyl)-amide [Example 124]	55	–
2-[2-(4-amidinophenyl)ethyl]-1-[2-(4-chlorophenyl)ethyl]-benzimidazol-5-yl-carboxylic acid-N-[4-(amino-methyl)-benzyl]-N-(3-pyridyl)-amide [Example 140]	63	–

Compound	% Inhibition (10 μM) [%]	IC50 [nM]
2-[2-(4-amidinophenyl)ethyl]-1-[3-(benzylcarbonylamino)-propyl]-benzimidazol-5-yl-carboxylic acid-N-(2-aminoethyl)-N-(2-pyridyl)-amide [Example 312]	55	–
2-[2-(4-amidinophenyl)ethyl]-1-[3-(benzylcarbonylamino)-propyl]-benzimidazol-5-yl-carboxylic acid-N-[4-(amino-methyl)-benzyl]-N-(2-pyridyl)-amide [Example 120]	74	–
2-[2-(4-amidinophenyl)ethyl]-1-[3-(benzylcarbonylamino)-propyl]-benzimidazol-5-yl-carboxylic acid-N-[4-(amino-methyl)-benzyl]-N-(3-pyridyl)-amide [Example 136]	74	–
2-[2-(4-amidinophenyl)ethyl]-1-[3-(morpholin-4-yl)-propyl]-benzimidazol-5-yl-carboxylic acid-N-[4-(amino-methyl)-benzyl]-N-(2-fluorobenzyl)-amide [Example 225]	58	–
2-[2-(4-amidinophenyl)ethyl]-1-[3-(morpholin-4-yl)-propyl]-benzimidazol-5-yl-carboxylic acid-N-[4-(amino-methyl)-benzyl]-N-(2-pyridyl)-amide [Example 129]	63	–
2-[2-(4-amidinophenyl)ethyl]-1-[3-(morpholin-4-yl)-propyl]-benzimidazol-5-yl-carboxylic acid-N-[4-(amino-methyl)-benzyl]-N-(3-pyridyl)-amide [Example 145]	73	–
2-[2-(4-amidinophenyl)ethyl]-1-cyclopropylmethyl-benzimidazol-5-yl-carboxylic acid-N-(2-aminoethyl)-N-(2-pyridyl)-amide [Example 314]	61	771
2-[2-(4-amidinophenyl)ethyl]-1-cyclopropylmethyl-benzimidazol-5-yl-carboxylic acid-N-(2-aminoethyl)-N-(3-pyridyl)-amide [Example 330]	54	503
2-[2-(4-amidinophenyl)ethyl]-1-cyclopropylmethyl-benzimidazol-5-yl-carboxylic acid-N-[4-(amino-methyl)-benzyl]-N-(2-pyridyl)-amide [Example 122]	70	515
2-[2-(4-amidinophenyl)ethyl]-1-cyclopropylmethyl-benzimidazol-5-yl-carboxylic acid-N-[4-(amino-methyl)-benzyl]-N-(3-pyridyl)-amide [Example 138]	72	431
2-[2-(4-amidinophenyl)ethyl]-1-{3-[4-(2-methylphenyl)-piperazin-1-yl]-propyl}-benzimidazol-5-yl-carboxylic acid-N-[4-(amino-methyl)-benzyl]-N-(2-pyridyl)-amide [Example 128]	51	–
2-[2-(4-amidinophenyl)ethyl]-1-{3-[4-(2-methylphenyl)-piperazin-1-yl]-propyl}-benzimidazol-5-yl-carboxylic acid-N-[4-(amino-methyl)-benzyl]-N-(3-pyridyl)-amide [Example 144]	54	–
CN(Cc1cccnc1)C(=O)c1ccc2c(c1)nc(CCc1ccc(C(=N)N)cc1)n2C [Example 1, 2-[2-(4-Amidinophenyl)ethyl]-1-methyl-benzimidazol-5-yl-carboxylic Acid-N-(pyridin-3-yl-methyl)-N-methyl-amide-hydrochloride]	–	887
CN(C)CCN(C)C(=O)c1ccc2c(c1)nc(CCc1ccc(C(=N)N)cc1)n2C [Example 3, 2-[2-(4-Amidinophenyl)-ethyl]1l-methyl-benzimidazol-5-yl-carboxylic Acid-N-[2-(N,N-dimethylamino)-ethyl]-N-methyl-amide-dihydrochlonide]	–	660
CN(Cc1ccc(C(=N)N)cc1)C(=O)c1ccc2c(c1)nc(CCc1ccc(C(=N)N)cc1)n2C [Example 4, 2-[2-(4-Amidinophenyl)-ethyl]-1-methyl-benzimidazol-5-yl-carboxylic Acid-N-(4-amidino-benzyl)-N-methyl-amide-trihydrochloride]	–	81
CCOC(=O)CN(Cc1ccc(C(=N)N)cc1)C(=O)c1ccc2c(c1)nc(CCc1ccc(C(=N)N)cc1)n2C [Example 5, 2-[2-(4-Amidinophenyl)-ethyl]-1-methyl-benzimidazol-5-yl-carboxylic Acid-N-(4-amidino-benzyl)-N-ethoxycarbonylmethyl-amide-dihydrochloride]	–	245
